Results: ChEMBL document CHEMBL4371076 (J Med Chem, 2019)

Legend:
[1] = molecular target: T1, Sodium channel protein type 9 subunit alpha (Homo sapiens, UniProt Q15858); test: Inhibition of human Nav1.7 expressed in HEK293 cells after 600 secs at -60 mV holding potential by ion works barracuda population patch clamp method; format: cell-based
[2] = molecular target: Sodium channel protein type 5 subunit alpha (Homo sapiens, UniProt Q14524); test: Inhibition of human Nav1.5 expressed in HEK293 cells after 600 secs at -50 mV holding potential by ion works barracuda population patch clamp method; format: cell-based
Cytochrome P450 2C9 [3] = molecular target: T2, Cytochrome P450 2C9 (Homo sapiens, UniProt P11712); test: Inhibition of CYP2C9 in human liver microsomes; format: ADME; conditions: human, microsomes
Cytochrome P450 2C19 [4] = molecular target: T3, Cytochrome P450 2C19 (Homo sapiens, UniProt P33261); test: Time-dependant inhibition of CYP2C19 in human liver microsomes; format: ADME
[5] = molecular target: T1, Sodium channel protein type 9 subunit alpha; test: Inhibition of recombinant human Nav1.7 expressed in HEK293 cells at -70 mV holding potential by patch clamp electrophysiology method; format: cell-based
Cytochrome P450 2B6 [6] = molecular target: T4, Cytochrome P450 2B6 (Homo sapiens, UniProt P20813); test: Inhibition of CYP2B6 in human liver microsomes; format: ADME; conditions: human, microsomes
T4 sequence (P20813 whole entry): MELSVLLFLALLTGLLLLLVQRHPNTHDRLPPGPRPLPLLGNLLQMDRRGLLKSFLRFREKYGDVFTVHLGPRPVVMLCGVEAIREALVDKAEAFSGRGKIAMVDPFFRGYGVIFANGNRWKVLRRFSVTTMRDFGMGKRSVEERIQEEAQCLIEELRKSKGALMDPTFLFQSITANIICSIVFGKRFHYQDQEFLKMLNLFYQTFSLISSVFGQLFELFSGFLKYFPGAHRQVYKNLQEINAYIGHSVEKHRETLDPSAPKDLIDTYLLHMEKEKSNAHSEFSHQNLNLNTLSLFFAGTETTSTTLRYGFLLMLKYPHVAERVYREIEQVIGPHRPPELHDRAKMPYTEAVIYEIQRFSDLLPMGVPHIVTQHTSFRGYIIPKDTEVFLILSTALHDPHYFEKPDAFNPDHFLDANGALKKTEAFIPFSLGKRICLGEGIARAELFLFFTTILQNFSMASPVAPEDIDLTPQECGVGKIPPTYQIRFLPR

Cytochrome P450 3A4 [7] = molecular target: T5, Cytochrome P450 3A4 (Homo sapiens, UniProt P08684); test: Time-dependant inhibition of CYP3A4 in human liver microsomes; format: ADME
[8] = Efflux ratio of permeability in human Caco2 cells; format: ADME, cell-based; conditions: Caco-2
[9] = Fraction unbound in human plasma; format: ADME, cell-free
Cytochrome P450 2D6 [10] = molecular target: T6, Cytochrome P450 2D6 (Homo sapiens, UniProt P10635); test: Inhibition of CYP2D6 in human liver microsomes; format: ADME; conditions: human, microsomes
Cytochrome P450 2C8 [11] = molecular target: T7, Cytochrome P450 2C8 (Homo sapiens, UniProt P10632); test: Inhibition of CYP2C8 in human liver microsomes; format: ADME; conditions: human, microsomes
T7 sequence (P10632 whole entry): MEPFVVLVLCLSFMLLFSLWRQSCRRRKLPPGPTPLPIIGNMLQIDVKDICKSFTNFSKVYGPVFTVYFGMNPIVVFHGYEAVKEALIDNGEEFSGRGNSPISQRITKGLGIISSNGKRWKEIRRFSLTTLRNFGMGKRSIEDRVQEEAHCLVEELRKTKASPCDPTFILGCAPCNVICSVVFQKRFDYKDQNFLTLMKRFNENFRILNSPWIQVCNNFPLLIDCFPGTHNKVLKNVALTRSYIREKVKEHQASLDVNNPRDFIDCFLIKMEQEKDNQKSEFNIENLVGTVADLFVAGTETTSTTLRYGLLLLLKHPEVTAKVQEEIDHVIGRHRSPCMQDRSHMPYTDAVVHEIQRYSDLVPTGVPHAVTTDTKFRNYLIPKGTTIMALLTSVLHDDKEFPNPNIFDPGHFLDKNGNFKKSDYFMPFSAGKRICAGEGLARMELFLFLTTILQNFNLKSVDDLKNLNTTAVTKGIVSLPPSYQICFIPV

Cytochrome P450 3A4 [12] = molecular target: T5, Cytochrome P450 3A4; test: Inhibition of CYP3A4 in human liver microsomes; format: ADME; conditions: human, microsomes
[13] = Fraction unbound in mouse plasma; format: ADME, cell-free
Cytochrome P450 2B6 [14] = molecular target: T4, Cytochrome P450 2B6; test: Time-dependant inhibition of CYP2B6 in human liver microsomes; format: ADME
[15] = Metabolic stability in mouse liver microsomes assessed as parent compound remaining at 0.5 uM after 10 mins; format: ADME, Microsome; conditions: read-out: Stability
[16] = Permeability from basolateral to apical side in human Caco2 cells; format: ADME, cell-based; conditions: Caco-2, read-out: permeability
[17] = Metabolic stability in human liver microsomes assessed as parent compound remaining at 0.5 uM after 10 mins; format: ADME, Microsome; conditions: read-out: Stability
[18] = Permeability from apical to basolateral side in human Caco2 cells; format: ADME, cell-based; conditions: Caco-2, read-out: permeability
Cytochrome P450 2C8 [19] = molecular target: T7, Cytochrome P450 2C8; test: Time-dependant inhibition of CYP2C8 in human liver microsomes; format: ADME
Cytochrome P450 2C9 [20] = molecular target: T2, Cytochrome P450 2C9; test: Time-dependant inhibition of CYP2C9 in human liver microsomes; format: ADME
[21] = Metabolic stability in rat liver microsomes assessed as parent compound remaining at 0.5 uM after 10 mins; format: ADME, Microsome; conditions: read-out: Stability
Cytochrome P450 2C19 [22] = molecular target: T3, Cytochrome P450 2C19; test: Inhibition of CYP2C19 in human liver microsomes; format: ADME; conditions: human, microsomes
Cytochrome P450 2D6 [23] = molecular target: T6, Cytochrome P450 2D6; test: Time-dependant inhibition of CYP2D6 in human liver microsomes; format: ADME
[24] = Permeability of the compound at pH 5.5 by PAMPA; format: ADME; conditions: read-out: permeability
[25] = Permeability of the compound at pH 7.4 by PAMPA; format: ADME; conditions: read-out: permeability

T6 sequence (P10635 whole entry): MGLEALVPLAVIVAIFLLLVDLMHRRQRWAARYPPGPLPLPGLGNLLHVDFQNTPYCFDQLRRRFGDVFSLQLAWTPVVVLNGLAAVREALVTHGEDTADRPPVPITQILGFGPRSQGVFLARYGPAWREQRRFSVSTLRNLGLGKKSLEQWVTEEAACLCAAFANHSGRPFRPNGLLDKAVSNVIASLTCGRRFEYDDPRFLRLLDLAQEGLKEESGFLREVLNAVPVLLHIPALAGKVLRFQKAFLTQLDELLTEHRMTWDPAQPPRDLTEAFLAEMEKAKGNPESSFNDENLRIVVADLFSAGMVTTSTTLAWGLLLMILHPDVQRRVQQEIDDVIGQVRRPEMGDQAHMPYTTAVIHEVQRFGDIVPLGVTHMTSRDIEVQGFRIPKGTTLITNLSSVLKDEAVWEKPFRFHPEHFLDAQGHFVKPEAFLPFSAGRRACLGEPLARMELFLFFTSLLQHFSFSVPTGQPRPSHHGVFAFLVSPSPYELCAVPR
T3 sequence (P33261 whole entry): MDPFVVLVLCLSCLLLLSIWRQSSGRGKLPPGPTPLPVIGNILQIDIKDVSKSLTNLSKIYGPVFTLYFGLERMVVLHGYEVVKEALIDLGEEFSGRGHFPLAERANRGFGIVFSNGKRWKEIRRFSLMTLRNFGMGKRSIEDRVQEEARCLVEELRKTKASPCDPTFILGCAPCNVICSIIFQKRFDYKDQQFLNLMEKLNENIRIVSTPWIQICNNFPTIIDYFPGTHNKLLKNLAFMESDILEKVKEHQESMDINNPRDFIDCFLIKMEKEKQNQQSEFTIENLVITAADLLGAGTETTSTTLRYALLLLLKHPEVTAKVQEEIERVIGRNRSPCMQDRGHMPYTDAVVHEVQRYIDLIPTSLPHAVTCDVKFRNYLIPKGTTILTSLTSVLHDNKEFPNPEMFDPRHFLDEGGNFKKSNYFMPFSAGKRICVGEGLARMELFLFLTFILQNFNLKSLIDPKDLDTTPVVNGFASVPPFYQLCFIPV
T2 sequence (P11712 whole entry): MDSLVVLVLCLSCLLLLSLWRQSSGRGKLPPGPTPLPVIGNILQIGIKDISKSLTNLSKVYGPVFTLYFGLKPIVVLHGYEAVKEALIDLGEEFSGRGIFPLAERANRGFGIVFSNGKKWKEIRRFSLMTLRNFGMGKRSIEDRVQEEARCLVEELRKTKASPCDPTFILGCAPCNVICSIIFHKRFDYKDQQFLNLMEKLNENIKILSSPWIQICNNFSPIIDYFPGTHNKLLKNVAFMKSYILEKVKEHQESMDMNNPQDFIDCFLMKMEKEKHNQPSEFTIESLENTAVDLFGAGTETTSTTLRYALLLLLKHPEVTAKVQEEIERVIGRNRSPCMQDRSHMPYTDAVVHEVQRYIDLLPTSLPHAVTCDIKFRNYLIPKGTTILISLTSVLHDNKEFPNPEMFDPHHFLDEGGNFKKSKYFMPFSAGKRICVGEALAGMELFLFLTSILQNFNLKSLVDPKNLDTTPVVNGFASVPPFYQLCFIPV
T1 sequence (Q15858 whole entry): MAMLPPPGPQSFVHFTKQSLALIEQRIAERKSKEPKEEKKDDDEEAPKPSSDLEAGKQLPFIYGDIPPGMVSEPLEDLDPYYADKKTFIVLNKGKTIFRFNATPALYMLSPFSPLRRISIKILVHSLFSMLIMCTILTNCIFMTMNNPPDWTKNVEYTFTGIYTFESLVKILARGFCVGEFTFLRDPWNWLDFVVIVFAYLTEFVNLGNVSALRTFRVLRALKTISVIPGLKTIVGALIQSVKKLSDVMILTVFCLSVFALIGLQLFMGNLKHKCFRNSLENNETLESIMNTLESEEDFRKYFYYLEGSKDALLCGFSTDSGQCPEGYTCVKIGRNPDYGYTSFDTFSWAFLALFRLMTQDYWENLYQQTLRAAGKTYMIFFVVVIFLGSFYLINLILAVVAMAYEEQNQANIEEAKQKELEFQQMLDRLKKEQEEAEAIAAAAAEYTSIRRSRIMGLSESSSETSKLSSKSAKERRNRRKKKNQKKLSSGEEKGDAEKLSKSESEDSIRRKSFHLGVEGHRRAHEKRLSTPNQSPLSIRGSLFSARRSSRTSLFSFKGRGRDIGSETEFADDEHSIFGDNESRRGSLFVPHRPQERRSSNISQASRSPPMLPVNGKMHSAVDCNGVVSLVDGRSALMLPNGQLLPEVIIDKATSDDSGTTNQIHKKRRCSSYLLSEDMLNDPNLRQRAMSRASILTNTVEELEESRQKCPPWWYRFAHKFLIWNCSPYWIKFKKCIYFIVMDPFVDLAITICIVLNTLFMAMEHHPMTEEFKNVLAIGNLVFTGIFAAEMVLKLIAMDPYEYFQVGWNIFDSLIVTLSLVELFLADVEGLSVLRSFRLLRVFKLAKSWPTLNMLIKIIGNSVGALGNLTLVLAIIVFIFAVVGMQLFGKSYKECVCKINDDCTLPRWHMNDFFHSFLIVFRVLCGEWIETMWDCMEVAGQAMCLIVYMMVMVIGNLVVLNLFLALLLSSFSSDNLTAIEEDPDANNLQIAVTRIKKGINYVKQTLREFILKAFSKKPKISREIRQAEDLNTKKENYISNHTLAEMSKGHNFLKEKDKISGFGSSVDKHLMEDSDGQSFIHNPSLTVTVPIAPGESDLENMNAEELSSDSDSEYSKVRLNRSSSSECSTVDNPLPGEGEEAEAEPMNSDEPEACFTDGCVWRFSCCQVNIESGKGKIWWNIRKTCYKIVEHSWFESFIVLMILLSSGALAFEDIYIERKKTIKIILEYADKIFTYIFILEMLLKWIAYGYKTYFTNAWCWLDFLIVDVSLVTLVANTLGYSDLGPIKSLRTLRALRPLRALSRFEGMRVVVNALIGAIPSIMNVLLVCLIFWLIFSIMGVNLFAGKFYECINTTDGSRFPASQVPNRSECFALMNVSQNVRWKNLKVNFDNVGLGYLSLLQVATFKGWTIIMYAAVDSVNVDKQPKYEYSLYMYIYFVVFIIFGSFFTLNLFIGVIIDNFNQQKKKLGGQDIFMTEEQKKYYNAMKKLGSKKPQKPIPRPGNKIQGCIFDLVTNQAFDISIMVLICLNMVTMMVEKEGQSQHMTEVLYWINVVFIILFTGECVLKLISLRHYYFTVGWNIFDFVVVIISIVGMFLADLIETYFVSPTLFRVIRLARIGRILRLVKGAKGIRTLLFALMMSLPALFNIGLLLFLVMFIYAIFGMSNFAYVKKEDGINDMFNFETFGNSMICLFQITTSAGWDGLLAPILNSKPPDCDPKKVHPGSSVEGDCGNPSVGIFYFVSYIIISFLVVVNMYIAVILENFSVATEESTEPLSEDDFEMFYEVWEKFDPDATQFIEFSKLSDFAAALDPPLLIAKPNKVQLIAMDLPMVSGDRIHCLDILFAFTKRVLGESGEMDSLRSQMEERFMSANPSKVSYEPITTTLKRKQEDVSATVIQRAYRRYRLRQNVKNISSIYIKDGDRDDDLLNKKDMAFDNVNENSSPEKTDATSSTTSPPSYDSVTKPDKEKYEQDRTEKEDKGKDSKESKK
T5 sequence (P08684 whole entry): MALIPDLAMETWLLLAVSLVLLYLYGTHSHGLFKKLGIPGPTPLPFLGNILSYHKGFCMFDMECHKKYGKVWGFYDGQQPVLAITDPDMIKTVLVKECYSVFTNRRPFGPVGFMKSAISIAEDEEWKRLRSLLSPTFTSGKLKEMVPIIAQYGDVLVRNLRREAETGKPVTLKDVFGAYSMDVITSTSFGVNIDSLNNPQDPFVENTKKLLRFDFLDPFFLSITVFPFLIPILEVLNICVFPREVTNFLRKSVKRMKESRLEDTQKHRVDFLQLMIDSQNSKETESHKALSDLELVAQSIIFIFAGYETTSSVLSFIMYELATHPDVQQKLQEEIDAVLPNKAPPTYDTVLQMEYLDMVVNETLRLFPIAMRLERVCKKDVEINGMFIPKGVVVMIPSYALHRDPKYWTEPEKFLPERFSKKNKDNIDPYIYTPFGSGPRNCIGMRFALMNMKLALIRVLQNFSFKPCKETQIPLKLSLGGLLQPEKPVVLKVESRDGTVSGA

In the case of `Cn1cc(-c2cccnc2)c2ccc(C(=O)NS(C)(=O)=O)cc21`, the IC50 [1] is reported as > 3 µM.
With `Cn1cc(-c2cccc(F)c2F)c2ccc(C(=O)NS(C)(=O)=O)cc21` the IC50 [2] was > 30 µM.
In the case of `Cn1cc(-c2cnc(OCC(F)F)c(Cl)c2)c2ccc(C(=O)NS(C)(=O)=O)cc21`, the IC50 [2] is reported as > 30 µM and the IC50 [1] is reported as 0.85 µM.
For `Cn1cc(-c2ccc(C(F)(F)F)cc2)c2ccc(C(=O)NS(=O)(=O)C3CC3)nc21`, the IC50 [1] was 0.642 µM.
With `CC(C)Cc1ccc(-c2cn(C)c3cc(C(=O)NS(C)(=O)=O)ccc23)cc1` the “inhibition (INH)” value (Cytochrome P450 2C9 [3]) was “Not Active”, the TDI (Cytochrome P450 2C19 [4]) was “Not Active” and the IC50 [5] was 0.023 µM. For the same molecule, the “inhibition (INH)” value (Cytochrome P450 2B6 [6]) was “Not Active”, the TDI (Cytochrome P450 3A4 [7]) was “Not Active” and the efflux ratio [8] was > 6.2. The fraction unbound [9] was 0.001, the “inhibition (INH)” value (Cytochrome P450 2D6 [10]) was “Not Active” and the “inhibition (INH)” value (Cytochrome P450 2C8 [11]) was “Not Active”. For the same molecule, the “inhibition (INH)” value (Cytochrome P450 3A4 [12]) was “Not Active”, the fraction unbound [13] was 0.003 and the TDI (Cytochrome P450 2B6 [14]) was “Not Active”. For the same molecule, the remaining at 10 min, 0.5 µM [15] was 100%, the Papp B→A [16] was 7.8 ×10⁻⁶ cm/s and the remaining at 10 min, 0.5 µM [17] was 100%. The IC50 [2] was > 30 µM, the Papp A→B [18] was < 1.5 ×10⁻⁶ cm/s and the TDI (Cytochrome P450 2C8 [19]) was “Not Active”. For the same molecule, the TDI (Cytochrome P450 2C9 [20]) was “Not Active”, the remaining at 10 min, 0.5 µM [21] was 94% and the “inhibition (INH)” value (Cytochrome P450 2C19 [22]) was “Not Active”. The TDI (Cytochrome P450 2D6 [23]) was “Not Active”.
For `Cn1cc(-c2ccc(C(F)F)cc2)c2ccc(C(=O)NS(C)(=O)=O)cc21`, the IC50 [2] was > 30 µM.
For `CC(C)COc1ncc(-c2cn(C)c3cc(C(=O)NS(C)(=O)=O)cnc23)cc1Cl`, the IC50 [1] was 7.82 µM.
For `Cn1cc(-c2ccc(C(F)(F)F)cc2)c2ccc(C(=O)NS(=O)(=O)C3CC3)cc21`, the “inhibition (INH)” value (Cytochrome P450 2C9 [3]) was “Not Active”, the Papp [24] was 52.5 ×10⁻⁶ cm/s and the TDI (Cytochrome P450 2C19 [4]) was “Not Active”. The IC50 [5] was 0.008 µM, the “inhibition (INH)” value (Cytochrome P450 2B6 [6]) was “Not Active” and the TDI (Cytochrome P450 3A4 [7]) was “Not Active”. For the same molecule, the Papp [25] was 13.5 ×10⁻⁶ cm/s, the fraction unbound [9] was 0.002 and the “inhibition (INH)” value (Cytochrome P450 2D6 [10]) was “Not Active”. The “inhibition (INH)” value (Cytochrome P450 2C8 [11]) was “Not Active”, the “inhibition (INH)” value (Cytochrome P450 3A4 [12]) was “Not Active” and the fraction unbound [13] was 0.004. For the same molecule, the TDI (Cytochrome P450 2B6 [14]) was “Not Active”, the remaining at 10 min, 0.5 µM [15] was 87% and the remaining at 10 min, 0.5 µM [17] was 87%. The IC50 [2] was 8.4 µM, the TDI (Cytochrome P450 2C8 [19]) was “Not Active” and the TDI (Cytochrome P450 2C9 [20]) was “Not Active”. The remaining at 10 min, 0.5 µM [21] was 92%, the “inhibition (INH)” value (Cytochrome P450 2C19 [22]) was “Not Active” and the IC50 [1] was 0.104 µM. The TDI (Cytochrome P450 2D6 [23]) was “Not Active”.
In the case of `CCc1ccc(-c2cn(C)c3cc(C(=O)NS(C)(=O)=O)ccc23)cc1`, the IC50 [2] is reported as > 30 µM.
For `Cn1cc(-c2ccc(C(F)F)cc2)c2cc(F)c(C(=O)NS(C)(=O)=O)cc21`, the IC50 [2] was > 30 µM.
In the case of `Cn1nc(-c2ccc(C(F)(F)F)cc2)c2cc(F)c(C(=O)NS(C)(=O)=O)cc21`, the IC50 [2] is reported as > 30 µM and the IC50 [1] is reported as 0.052 µM.
Molecule `CC(C)COc1ncc(-c2cn(C)c3cc(C(=O)NS(C)(=O)=O)ccc23)cc1C#N` has an IC50 [2] of 21 µM and an IC50 [1] of 0.07 µM.
In the case of `CCc1cccc(-c2cn(C)c3cc(C(=O)NS(C)(=O)=O)ccc23)c1`, the IC50 [2] is reported as > 30 µM.
`CC(C)COc1ncc(-c2cn(C)c3cc(C(=O)NS(=O)(=O)C4CC4)cnc23)cc1Cl` gave an IC50 [1] of 2 µM.
With `Cn1cc(-c2ccc(C(F)(F)F)cc2)c2cnc(C(=O)NS(C)(=O)=O)cc21` the IC50 [1] was > 30 µM.
In the case of `CC(C)COc1ccc(-c2nn(C)c3cc(C(=O)NS(C)(=O)=O)ccc23)cn1`, the IC50 [2] is reported as > 30 µM and the IC50 [1] is reported as 0.314 µM.
With `Cc1cccc(-c2cn(C)c3cc(C(=O)NS(C)(=O)=O)ccc23)c1` the IC50 [2] was > 30 µM.
For `CC(C)COc1ncc(-c2cn(C)c3nc(C(=O)NS(C)(=O)=O)ccc23)cc1Cl`, the IC50 [1] was 1.4 µM.
With `Cn1cc(-c2ccc(C(F)F)cc2)c2ccc(C(=O)NS(=O)(=O)C3CC3)cc21` the IC50 [2] was > 30 µM.
With `Cn1cc(-c2cnc(OCC(C)(C)O)c(Cl)c2)c2ccc(C(=O)NS(C)(=O)=O)cc21` the IC50 [2] was > 30 µM and the IC50 [1] was > 30 µM.
